The structures appear in SMILES notation. Converted amounts (≈) assume the structure as drawn.

One data set deals with Bibionidae. The settings on record: chronic/long-term; duration: 28 days.
In another data set the test system is Anas platyrhynchos. The settings on record: reproductive.
The test system of another data set is Apis mellifera. Conditions: acute; duration: 48 hours; dermal; mortality.
For a further data set, the system named is Colinus virginianus. The settings on record: acute, mortality.
The next data set deals with Daphnia magna. Conditions: chronic/long-term; duration: 21 days; reproduction.
Another data set relates to Aphidius rhopalosiphi. In words: LR50; higher = less toxic. Conditions: acute; duration: 48 hours; mortality.

A word on the NOAEL: it is the highest dose or exposure tested at which no adverse effect was seen. In the case of `Cc1cc(C)c(C2=C(OC(=O)CC(C)(C)C)C3(CCCC3)OC2=O)c(C)c1` [Spiromesifen], the NOEC in the data set on Bibionidae came to 0.032 mg/L; in the data set on Anas platyrhynchos, 229 mg/kg; in the data set on Oncorhynchus mykiss (chronic/long-term, duration: 97 days, time to swim up), 0.00473 mg/L; in the data set on Tagia sp. (chronic/long-term, duration: 56 days, reproduction) it was 4.32 mg/kg; with Daphnia magna, 0.00025 mg/L; in the data set with Rattus norvegicus (chronic), 30 mg/kg-day. The LC50 was above 5000 mg/kg in the data set on Anas platyrhynchos (mortality); 0.016 µg/mL (≈ 0.0432 µM) in the data set with Oncorhynchus mykiss (acute, duration: 96 hours, mortality); above 1000 mg/kg in the data set on Tagia sp. (acute, duration: 14 days, mortality); above 5000 mg/kg with Colinus virginianus. Moreover, the LD50 with Apis mellifera was above 200 µg/piece; in the data set with Colinus virginianus, above 1160 mg/kg; with Colinus virginianus (oral, diet), above 2000 mg/kg; with Rattus norvegicus (acute, oral, mortality), above 2500 mg/kg. Besides, the NOAEL in the data set with Mus musculus (chronic, duration: 18 months) is 3 mg/kg-day; in the data set on Mus musculus (subchronic, duration: 90 days, oral, clinical chemistry) it was 3 mg/kg-day; in the data set on Rattus norvegicus (acute), 200 mg/kg-day. In addition, the LR50 in the data set on Aphidius rhopalosiphi stood at 40.6 mL/ha.

The values above are taken from EPA's ToxValDB 9.5 (doi:10.2903/j.efsa.2007.105r).
